Test results as given in patent US20040076968A1, “Method for detecting pre-disposition to hepatotoxicity” (priority 2000, published 2004).

Test system: UGT1A6 gene
Test: Association of UGT1A6 polymorphisms with liver function abnormality in tolcapone-treated patients (case-control genotyping)
Type: in vivo, human
Procedure: Disease severity had already been controlled for by the original study inclusion criteria.
In the KTC format, the generation of double-stranded amplification product is monitored using a DNA intercalating dye and a thermal cycler which has a fluorescence-detecting CCD camera attached (PE-Bipsystems GeneAmp 5700 Sequence Detection System). Fluorescence in each well of the PCR amplification plate is measured at each cycle of annealing and denaturation. The cycle at which the relative fluorescence reached a threshold of 0.5 using the SDS sofiware from PE-Biosystems was defined as the Ct.
The amplification reactions were designed to be allele-specific, so that the amplification reaction was positive if the polymorphism was present and the amplification reaction was negative if the polymorphism was absent. For each bi-allelic polymorphism, one well of the amplification plate was set up to be specific for allele 1 and a second well was set up to be specific for allele 2. For each polymorphism to be detected, three primers were designed—two allele-specific primers and one common primer (Table 3). Reactions for allele 1 contained allele 1-specific primer and the common primer and reactions for allele 2 contained allele 2-specific primer and the common primer.
The Ct of each amplification reaction was determined and the difference between the Ct for allele 1 and allele 2 (delta Ct) was, used as the assay result. Samples with delta Cts between −3.0 and 3.0 were considered heterozygous (A1/A2). Samples with delta Cts below −3.0 were considered homozygous for A1 (A1/A1); samples with delta Cts above 3.0 were considered homozygous for A2 (A2/A2).
For all other single nucleotide polymorphisms (SNPs) discovery and genotyping was done by double-stranded DNA sequencing using an ABI capillary sequencer and Big Dye chemistry (ABI). The primers used to amplify all exons are shown below and were also used as sequencing primers. Publicly available genomic sequences were used as references for primer design. All polymorphisms were targeted with these pairs-of-primer sets:
The patient samples were divided into two groups.
For each genotype, the following analyses were performed:
a) Analysis of the entire genotype: patients were classified according to the following three categories: homozygous 1/1 (two copies of allele 1 and no copies of allele 2), heterozygous 1/2 (one copy of allele 1 and one copy of allele 2) or homozygous 2/2 (no copies of allele 1 and two copies of allele 2). Analysis was conducted to assess whether there were differences in the proportion of case patients in each of these groups, compared with the proportion of control patients. The Cochran-Maentel-Hanszel (CMH) test was applied to the data presented in a 2-by-3 table (the two columns indicating presence or absence of liver function abnormality and the three rows indicating the three categories of the genotype).
b) Analysis of alleles: the presence of allele 1 or 2 in case patients was compared to the presence of the respective allele in the control patients.
c) Analysis of allele counts: this analysis was conducted to compare the distribution of the alleles in patients with liver function abnormality to that of patients without abnormality. The total number of copies of allele 1 among patients with liver function abnormality was compared with the total number of copies of allele 2 among these case patients.

`Cc1ccc(C(=O)c2cc(O)c(O)c([N+](=O)[O-])c2)cc1` [tolcapone] was tested, and the “n (%) of patients” value (UGT1A6_232 Ser7Ala, Allele G Absent, Liver Function Abnormality Absent) was 112 (42.1%), the “n (%) of patients” value (UGT1A6_232 Ser7Ala, Allele G Absent, Liver Function Abnormality Present) was 40 (30.5%) and the “n (%) of patients” value (UGT1A6_232 Ser7Ala, Allele G Present, Liver Function Abnormality Absent) was 154 (57.9%). The “n (%) of patients” value (UGT1A6_232 Ser7Ala, Allele G Present, Liver Function Abnormality Present) was 91 (69.5%), the “n (%) of patients” value (UGT1A6_232 Ser7Ala, Allele T Absent, Liver Function Abnormality Absent) was 31 (11.7%) and the “n (%) of patients” value (UGT1A6_232 Ser7Ala, Allele T Absent, Liver Function Abnormality Present) was 28 (21.4%). The “n (%) of patients” value (UGT1A6_232 Ser7Ala, Allele T Present, Liver Function Abnormality Absent) was 235 (88.3%), the “n (%) of patients” value (UGT1A6_232 Ser7Ala, Allele T Present, Liver Function Abnormality Present) was 103 (78.6%) and the “n (%) of allele copies” value (UGT1A6_232 Ser7Ala, Count Allele G, Liver Function Abnormality Absent) was 185 (34.8%). The “n (%) of allele copies” value (UGT1A6_232 Ser7Ala, Count Allele G, Liver Function Abnormality Present) was 119 (45.4%), the “n (%) of allele copies” value (UGT1A6_232 Ser7Ala, Count Allele T, Liver Function Abnormality Absent) was 347 (65.2%) and the “n (%) of allele copies” value (UGT1A6_232 Ser7Ala, Count Allele T, Liver Function Abnormality Present) was 143 (54.6%). The “n (%) of patients” value (UGT1A6_232 Ser7Ala, Genotype Heterozygous T/G, Liver Function Abnormality Absent) was 123 (46.2%), the “n (%) of patients” value (UGT1A6_232 Ser7Ala, Genotype Heterozygous T/G, Liver Function Abnormality Present) was 63 (48.1%) and the “n (%) of patients” value (UGT1A6_232 Ser7Ala, Genotype Homozygous G/G, Liver Function Abnormality Absent) was 31 (11.7%). For the same molecule, the “n (%) of patients” value (UGT1A6_232 Ser7Ala, Genotype Homozygous G/G, Liver Function Abnormality Present) was 28 (21.4%), the “n (%) of patients” value (UGT1A6_232 Ser7Ala, Genotype Homozygous T/T, Liver Function Abnormality Absent) was 112 (42.1%) and the “n (%) of patients” value (UGT1A6_232 Ser7Ala, Genotype Homozygous T/T, Liver Function Abnormality Present) was 40 (30.5%). For the same molecule, the “n (%) of patients” value (UGT1A6_528 A/G, Allele A Absent, Liver Function Abnormality Absent) was 22 (8.3%), the “n (%) of patients” value (UGT1A6_528 A/G, Allele A Absent, Liver Function Abnormality Present) was 26 (20.0%) and the “n (%) of patients” value (UGT1A6_528 A/G, Allele A Present, Liver Function Abnormality Absent) was 243 (91.7%). For the same molecule, the “n (%) of patients” value (UGT1A6_528 A/G, Allele A Present, Liver Function Abnormality Present) was 104 (80.0%), the “n (%) of patients” value (UGT1A6_528 A/G, Allele G Absent, Liver Function Abnormality Absent) was 129 (48.7%) and the “n (%) of patients” value (UGT1A6_528 A/G, Allele G Absent, Liver Function Abnormality Present) was 44 (33.8%). For the same molecule, the “n (%) of patients” value (UGT1A6_528 A/G, Allele G Present, Liver Function Abnormality Absent) was 136 (51.3%), the “n (%) of patients” value (UGT1A6_528 A/G, Allele G Present, Liver Function Abnormality Present) was 86 (66.2%) and the “n (%) of allele copies” value (UGT1A6_528 A/G, Count Allele A, Liver Function Abnormality Absent) was 372 (70.2%). The “n (%) of allele copies” value (UGT1A6_528 A/G, Count Allele A, Liver Function Abnormality Present) was 148 (56.9%), the “n (%) of allele copies” value (UGT1A6_528 A/G, Count Allele G, Liver Function Abnormality Absent) was 158 (29.8%) and the “n (%) of allele copies” value (UGT1A6_528 A/G, Count Allele G, Liver Function Abnormality Present) was 112 (43.1%). The “n (%) of patients” value (UGT1A6_528 A/G, Genotype Heterozygous A/G, Liver Function Abnormality Absent) was 114 (43.0%), the “n (%) of patients” value (UGT1A6_528 A/G, Genotype Heterozygous A/G, Liver Function Abnormality Present) was 60 (46.2%) and the “n (%) of patients” value (UGT1A6_528 A/G, Genotype Homozygous A/A, Liver Function Abnormality Absent) was 129 (48.7%). The “n (%) of patients” value (UGT1A6_528 A/G, Genotype Homozygous A/A, Liver Function Abnormality Present) was 44 (33.8%), the “n (%) of patients” value (UGT1A6_528 A/G, Genotype Homozygous G/G, Liver Function Abnormality Absent) was 22 (8.3%) and the “n (%) of patients” value (UGT1A6_528 A/G, Genotype Homozygous G/G, Liver Function Abnormality Present) was 26 (20.0%). The “n (%) of patients” value (UGT1A6_754 Thr181Ala, Allele Ala Absent, Liver Function Abnormality Absent) was 144 (52.6%), the “n (%) of patients” value (UGT1A6_754 Thr181Ala, Allele Ala Absent, Liver Function Abnormality Present) was 51 (37.8%) and the “n (%) of patients” value (UGT1A6_754 Thr181Ala, Allele Ala Present, Liver Function Abnormality Absent) was 130 (47.4%). The “n (%) of patients” value (UGT1A6_754 Thr181Ala, Allele Ala Present, Liver Function Abnormality Present) was 84 (62.2%), the “n (%) of patients” value (UGT1A6_754 Thr181Ala, Allele Thr Absent, Liver Function Abnormality Absent) was 22 (8.0%) and the “n (%) of patients” value (UGT1A6_754 Thr181Ala, Allele Thr Absent, Liver Function Abnormality Present) was 25 (18.5%). For the same molecule, the “n (%) of patients” value (UGT1A6_754 Thr181Ala, Allele Thr Present, Liver Function Abnormality Absent) was 252 (92.0%), the “n (%) of patients” value (UGT1A6_754 Thr181Ala, Allele Thr Present, Liver Function Abnormality Present) was 110 (81.5%) and the “n (%) of allele copies” value (UGT1A6_754 Thr181Ala, Count Allele Ala, Liver Function Abnormality Absent) was 152 (27.7%). The “n (%) of allele copies” value (UGT1A6_754 Thr181Ala, Count Allele Ala, Liver Function Abnormality Present) was 109 (40.4%), the “n (%) of allele copies” value (UGT1A6_754 Thr181Ala, Count Allele Thr, Liver Function Abnormality Absent) was 396 (72.3%) and the “n (%) of allele copies” value (UGT1A6_754 Thr181Ala, Count Allele Thr, Liver Function Abnormality Present) was 161 (59.6%). The “n (%) of patients” value (UGT1A6_754 Thr181Ala, Genotype Heterozygous Thr/Ala, Liver Function Abnormality Absent) was 108 (39.4%), the “n (%) of patients” value (UGT1A6_754 Thr181Ala, Genotype Heterozygous Thr/Ala, Liver Function Abnormality Present) was 59 (43.7%) and the “n (%) of patients” value (UGT1A6_754 Thr181Ala, Genotype Homozygous Ala/Ala, Liver Function Abnormality Absent) was 22 (8.8%). The “n (%) of patients” value (UGT1A6_754 Thr181Ala, Genotype Homozygous Ala/Ala, Liver Function Abnormality Present) was 25 (18.5%), the “n (%) of patients” value (UGT1A6_754 Thr181Ala, Genotype Homozygous Thr/Thr, Liver Function Abnormality Absent) was 144 (52.6%) and the “n (%) of patients” value (UGT1A6_754 Thr181Ala, Genotype Homozygous Thr/Thr, Liver Function Abnormality Present) was 51 (37.8%). The “n (%) of patients” value (UGT1A6_765 Arg184Ser, Allele Arg Absent, Liver Function Abnormality Absent) was 24 (8.8%), the “n (%) of patients” value (UGT1A6_765 Arg184Ser, Allele Arg Absent, Liver Function Abnormality Present) was 26 (19.3%) and the “n (%) of patients” value (UGT1A6_765 Arg184Ser, Allele Arg Present, Liver Function Abnormality Absent) was 250 (91.2%). For the same molecule, the “n (%) of patients” value (UGT1A6_765 Arg184Ser, Allele Arg Present, Liver Function Abnormality Present) was 109 (80.7%), the “n (%) of patients” value (UGT1A6_765 Arg184Ser, Allele Ser Absent, Liver Function Abnormality Absent) was 128 (46.7%) and the “n (%) of patients” value (UGT1A6_765 Arg184Ser, Allele Ser Absent, Liver Function Abnormality Present) was 45 (33.3%). For the same molecule, the “n (%) of patients” value (UGT1A6_765 Arg184Ser, Allele Ser Present, Liver Function Abnormality Absent) was 146 (53.3%), the “n (%) of patients” value (UGT1A6_765 Arg184Ser, Allele Ser Present, Liver Function Abnormality Present) was 90 (66.7%) and the “n (%) of allele copies” value (UGT1A6_765 Arg184Ser, Count Allele Arg, Liver Function Abnormality Absent) was 378 (69.0%). For the same molecule, the “n (%) of allele copies” value (UGT1A6_765 Arg184Ser, Count Allele Arg, Liver Function Abnormality Present) was 154 (57.0%), the “n (%) of allele copies” value (UGT1A6_765 Arg184Ser, Count Allele Ser, Liver Function Abnormality Absent) was 170 (31.0%) and the “n (%) of allele copies” value (UGT1A6_765 Arg184Ser, Count Allele Ser, Liver Function Abnormality Present) was 116 (43.0%). For the same molecule, the “n (%) of patients” value (UGT1A6_765 Arg184Ser, Genotype Heterozygous Arg/Ser, Liver Function Abnormality Absent) was 122 (44.5%), the “n (%) of patients” value (UGT1A6_765 Arg184Ser, Genotype Heterozygous Arg/Ser, Liver Function Abnormality Present) was 64 (47.4%) and the “n (%) of patients” value (UGT1A6_765 Arg184Ser, Genotype Homozygous Arg/Arg, Liver Function Abnormality Absent) was 128 (46.7%). For the same molecule, the “n (%) of patients” value (UGT1A6_765 Arg184Ser, Genotype Homozygous Arg/Arg, Liver Function Abnormality Present) was 45 (33.3%), the “n (%) of patients” value (UGT1A6_765 Arg184Ser, Genotype Homozygous Ser/Ser, Liver Function Abnormality Absent) was 24 (8.8%) and the “n (%) of patients” value (UGT1A6_765 Arg184Ser, Genotype Homozygous Ser/Ser, Liver Function Abnormality Present) was 26 (19.3%).
